Experimental data published in US8273775B2, “Non-steroidal brassinosteroid mimetic” (priority 2006, dated 2012).

Tested on: gene expression in Col-0 seedling shoots
Assay: Microarray analysis (ATH1 Affymetrix) after BL or abrasin treatment
Assay type: in vivo, Arabidopsis
Conditions: 30 min
Experimental: FIG. 14: Clustering of gene expression profiles by QT-clust analysis. Clusters illustrating the major patterns of the data sets. Points: BIK-30: 30 μM abrasin 30 min; BL-30: 1 μM brassinolide 30 min; DMSO-30: control DMSO 30 min; BIK-120: 30 μM abrasin 120 min; BL-120: 1 μM brassinolide 120 min; DMSO-120: control DMSO 120 min.
Col-0 seeds were germinated vertically on ½ MS medium for 7 days under 16 h light/8 h dark cycles. The seedlings were overlaid with liquid ½ MS medium containing 1 μM brassinolide (BL, Fuji Chemical Industries, Ltd., Toyama, Japan), 30 μM abrasin (BIK, ChemBridge Corporation) and DMSO and treated for 30 and 120 min. The shoot parts were collected for RNA isolation. All sampling points were performed in three independent experiments. RNA was extracted using RNeasy kit (Qiagene). […] total RNA per array was used to hybridise the ATH1 Affymetrix Arabidopsis arrays according to standard procedure. The overrepresentation analyses were performed using BiNGO software (Maere et al., 2005).
We performed a microarray analysis using the Arabidopsis whole genome chip (Affymetix) to determine whether abrasin activated the expression of BR-inducible genes at transcriptional level. Wild-type Col-0 seedlings were exposed to 1 μM BL, 30 μM ABRASIN and DMSO (mock-treatment) for two time points (30 min and 120 min) and the shoot parts were collected for RNA isolation. The analysis of the variance of the normalized gene expression data took in account the variability parameters affecting the expression level: type of hormone treatment, duration of treatment and the interaction between these two.

`CC(C)[C@H](C)[C@@H](O)[C@H](O)[C@@H](C)[C@H]1CC[C@H]2[C@@H]3COC(=O)[C@H]4C[C@H](O)[C@H](O)C[C@]4(C)[C@H]3CC[C@]12C` [BL, brassinolide, reference compound] was tested, and the “Fold-change AT2G23320 WRKY family transcription factor” value was 0.86, the “Fold-change AT2G26530 expressed protein” value was 0.41 and the “Fold-change AT2G26710 cytochrome p450 family (BAS1)” value was 1.56. For the same compound, the “Fold-change AT2G28510 Dof-type zinc finger domain-containing protein” value was 0.94, the “Fold-change AT2G29340 short-chain dehydrogenase/reductase (SDR) family protein” value was 0.85 and the “Fold-change AT2G29990 pyridine nucleotide-disulphide oxidoreductase family protein” value was 0.94. For the same compound, the “Fold-change AT2G30070 potassium transporter (KUP1)” value was 0.81, the “Fold-change AT2G31230 encodes a member of the ERF (ethylene response factor)” value was 1.66 and the “Fold-change AT2G34650 protein kinase PINOID (PID)” value was 1.54. The “Fold-change AT2G36220 expressed protein” value was 1.18, the “Fold-change AT2G37590 Dof-type zinc finger domain-containing protein” value was 0.90 and the “Fold-change AT2G38470 WRKY family transcription factor” value was 0.38. The “Fold-change AT2G39710 aspartyl protease family protein” value was 1.25, the “Fold-change AT2G40340; AT2G40350 [AT2G40340, encodes a member of the DREB subfamily A-2 of ERF/AP2” value was 1.16 and the “Fold-change AT2G41250 haloacid dehalogenase-like hydrolase family protein” value was 0.91. For the same compound, the “Fold-change AT2G41640 expressed protein” value was 0.84, the “Fold-change AT2G42280 basic helix-loop-helix (bHLH) family protein” value was 0.98 and the “Fold-change AT2G43060 expressed protein, similar to cDNA bHLH transcription factor” value was 0.25. For the same compound, the “Fold-change AT2G43280 far-red impaired responsive family protein” value was 0.84, the “Fold-change AT2G43290 calmodulin-like protein (MSS3)” value was 1.24 and the “Fold-change AT2G44130 kelch repeat-containing F-box family protein” value was 1.63. The “Fold-change AT2G44500 expressed protein” value was 1.16, the “Fold-change AT2G45210 auxin-responsive protein-related” value was 0.77 and the “Fold-change AT2G45680 TCP family transcription factor” value was 0.91. The “Fold-change AT2G46225 Encodes a subunit of the WAVE complex” value was 0.97, the “Fold-change AT2G47440 DNAJ heat shock N-terminal domain-containing protein” value was 1.31 and the “Fold-change AT3G04210 disease resistance protein (TIR-NBS class), putative,” value was 0.89. The “Fold-change AT3G09920 phosphatidylinositol-4-phosphate 5-kinase family protein” value was 0.94, the “Fold-change AT3G12920 expressed protein” value was 0.81 and the “Fold-change AT3G13040 myb family transcription factor” value was 0.84. The “Fold-change AT3G13510 expressed protein” value was 1.06, the “Fold-change AT3G13980 expressed protein” value was 0.71 and the “Fold-change AT3G14370 protein kinase family protein” value was 2.13. The “Fold-change AT3G14560 expressed protein” value was 0.81, the “Fold-change AT3G16570 rapid alkalinization factor (RALF) family protein” value was 0.88 and the “Fold-change AT3G17860 expressed protein” value was 1.08. The “Fold-change AT3G18830 polyol/cyclitol/monosaccharide-H+-symporte” value was 1.11, the “Fold-change AT3G19380 U-box domain-containing protein” value was 0.70 and the “Fold-change AT3G23030 auxin-responsive protein/indoleacetic acid-induced protein 2 (IAA2)” value was 0.66. For the same compound, the “Fold-change AT3G23550 MATE efflux family protein” value was 0.84, the “Fold-change AT3G25710 basic helix-loop-helix (bHLH) family protein” value was 1.06 and the “Fold-change AT3G25900 homocysteine S-methyltransferase 1 (HMT-1)” value was 1.17. For the same compound, the “Fold-change AT3G26910 hydroxyproline-rich glycoprotein family protein” value was 1.08, the “Fold-change AT3G30180 cytochrome p450 enzyme” value was 0.31 and the “Fold-change AT3G46880 expressed protein,” value was 0.84. For the same compound, the “Fold-change AT3G47800 aldose 1-epimerase family protein” value was 1.06, the “Fold-change AT3G48970 copper-binding family protein” value was 0.97 and the “Fold-change AT3G49810 U-box domain-containing protein” value was 0.89. For the same compound, the “Fold-change AT3G50650 scarecrow-like transcription factor 7 (SCL7)” value was 1.17, the “Fold-change AT3G50660 steroid 22-alpha-hydroxylase (CYP90B1) (DWF4)” value was 0.47 and the “Fold-change AT3G50750 brassinosteroid signalling positive regulator-related (BEH1)” value was 0.99. For the same compound, the “Fold-change AT3G52490 heat shock protein-related” value was 0.93, the “Fold-change AT3G53810 lectin protein kinase” value was 0.80 and the “Fold-change AT3G54950 patatin-related,” value was 0.86. The “Fold-change AT3G55120 chalcone-flavanone isomerase” value was 0.98, the “Fold-change AT3G55150 exocyst subunit EXO70 family protein” value was 0.75 and the “Fold-change AT3G55840 expressed protein” value was 1.06. For the same compound, the “Fold-change AT3G61460 zinc finger (C3HC4-type RING finger) family protein (BRH1)” value was 0.78, the “Fold-change AT3G63300 expressed protein” value was 1.02 and the “Fold-change AT4G01680 myb family transcription factor (MYB55)” value was 0.51. The “Fold-change AT4G02410 lectin protein kinase family protein” value was 0.66, the “Fold-change AT4G08040 1-aminocyclopropane-1-carboxylate synthase, putative” value was 0.13 and the “Fold-change AT4G09460 myb family transcription factor” value was 1.30. The “Fold-change AT4G12390 invertase/pectin methylesterase inhibitor family protein” value was 0.96, the “Fold-change AT4G12410 auxin-responsive family protein” value was 1.02 and the “Fold-change AT4G14130 xyloglucan:xyloglucosyl transferase” value was 0.85. The “Fold-change AT4G15975 zinc finger (C3HC4-type RING finger) family protein” value was 1.10 and the “Fold-change AT4G16146 expressed protein” value was 0.82.
